Results reported in the OligoGym collection.
HELM strings list units from the 5' end as sugar, base in round brackets, then linkage (d deoxyribose, r ribose, m 2'-O-methyl, p phosphodiester). Strings are as the collection lists them; they lack the last nucleoside at the 3' end of the tested compound. [moe] = 2'-O-(2-methoxyethyl) (MOE); [sp] = phosphorothioate linkage; [m5C] = 5-methylcytosine

Molecular target: GFAP
Assay: mouse, dose not given
Details: ASO

Substance | 3 h FOB score [score 0-7]
RNA1{[moe](T)[sp].[moe]([m5C])p.[moe](T)p.[moe]([m5C])p.[moe](A)[sp].d(G)[sp].d(T)[sp].d(T)[sp].d(T)[sp].d(T)[sp].d([m5C])[sp].d([m5C])[sp].d(T)[sp].d([m5C])[sp].d([m5C])[sp].[moe](A)p.[moe](G)p.[moe]([m5C])[sp].[moe](A)}$$$$ (last 3' nucleoside missing) | 4
RNA1{[moe](T)[sp].[moe](A)p.[moe](G)p.[moe](T)p.[moe]([m5C])p.d(A)[sp].d(G)[sp].d([m5C])[sp].d([m5C])[sp].d(T)[sp].d(G)[sp].d(G)[sp].d(T)[sp].d(T)[sp].d(A)[sp].[moe](G)p.[moe]([m5C])p.[moe]([m5C])[sp].[moe](T)}$$$$ (last 3' nucleoside missing) | 4
RNA1{[moe](G)[sp].[moe](T)p.[moe](G)p.[moe](T)p.[moe](A)[sp].d(T)[sp].d(T)[sp].d(A)[sp].d(G)[sp].d(G)[sp].d(A)[sp].d(T)[sp].d([m5C])[sp].[moe]([m5C])p.[moe]([m5C])p.[moe](A)[sp].[moe](T)}$$$$ (last 3' nucleoside missing) | 4
RNA1{[moe](G)[sp].[moe](G)p.[moe]([m5C])p.[moe](T)p.[moe](T)[sp].d([m5C])[sp].d(A)[sp].d(T)[sp].d([m5C])[sp].d(T)[sp].d(G)[sp].d([m5C])[sp].d(T)[sp].d(T)[sp].d([m5C])[sp].[moe]([m5C])p.[moe](T)p.[moe](G)[sp].[moe](G)}$$$$ (last 3' nucleoside missing) | 1
RNA1{[moe](G)[sp].[moe](T)p.[moe](G)p.[moe]([m5C])p.[moe](T)p.[moe](T)p.d(T)[sp].d(T)[sp].d(G)[sp].d([m5C])[sp].d([m5C])[sp].d([m5C])[sp].d([m5C])[sp].d([m5C])[sp].d(T)[sp].d(G)[sp].[moe](T)p.[moe](A)[sp].[moe](G)}$$$$ (last 3' nucleoside missing) | 3
RNA1{[moe]([m5C])[sp].[moe](A)p.[moe](G)p.[moe]([m5C])p.[moe](A)[sp].d(T)[sp].d(T)[sp].d(T)[sp].d(G)[sp].d(T)[sp].d([m5C])[sp].d(T)[sp].d(T)[sp].d(T)[sp].d(A)[sp].[moe](T)p.[moe](T)p.[moe](T)[sp].[moe](T)}$$$$ (last 3' nucleoside missing) | 2
RNA1{[moe]([m5C])[sp].[moe](A)p.[moe](G)p.[moe]([m5C])p.[moe]([m5C])p.d(T)[sp].d(G)[sp].d(G)[sp].d(T)[sp].d(T)[sp].d(A)[sp].d(G)[sp].d([m5C])[sp].d([m5C])[sp].d(T)[sp].[moe](T)p.[moe](T)p.[moe]([m5C])[sp].[moe](T)}$$$$ (last 3' nucleoside missing) | 5
RNA1{[moe](T)[sp].[moe](G)p.[moe](G)p.[moe](T)p.[moe](G)p.[moe]([m5C])p.d(T)[sp].d(T)[sp].d(T)[sp].d(T)[sp].d(G)[sp].d([m5C])[sp].d([m5C])[sp].d([m5C])[sp].d([m5C])[sp].d([m5C])[sp].[moe](T)p.[moe](G)[sp].[moe](T)}$$$$ (last 3' nucleoside missing) | 1
RNA1{[moe](A)[sp].[moe](T)p.[moe](T)p.[moe](T)p.[moe](G)p.d(G)[sp].d([m5C])[sp].d(A)[sp].d(G)[sp].d(T)[sp].d(A)[sp].d(T)[sp].d(T)[sp].d(A)[sp].d([m5C])[sp].[moe]([m5C])p.[moe](T)p.[moe]([m5C])[sp].[moe](T)}$$$$ (last 3' nucleoside missing) | 2
RNA1{[moe](A)[sp].[moe](G)p.[moe]([m5C])p.[moe]([m5C])p.[moe](A)[sp].d(G)[sp].d(T)[sp].d(G)[sp].d(T)[sp].d([m5C])[sp].d(T)[sp].d(T)[sp].d([m5C])[sp].d(A)[sp].d([m5C])[sp].[moe](T)p.[moe](T)p.[moe](T)[sp].[moe](G)}$$$$ (last 3' nucleoside missing) | 2
RNA1{[moe](T)[sp].[moe](G)p.[moe](T)p.[moe](G)p.[moe](A)[sp].d([m5C])[sp].d(T)[sp].d(A)[sp].d(T)[sp].d([m5C])[sp].d(T)[sp].d(A)[sp].d(G)[sp].[moe](G)p.[moe](A)p.[moe](T)[sp].[moe](T)}$$$$ (last 3' nucleoside missing) | 3
RNA1{[moe](A)[sp].[moe]([m5C])p.[moe](T)p.[moe](A)p.[moe](G)p.d(T)[sp].d([m5C])[sp].d(A)[sp].d(G)[sp].d([m5C])[sp].d([m5C])[sp].d(T)[sp].d(G)[sp].d(G)[sp].d(T)[sp].[moe](T)p.[moe](A)p.[moe](G)[sp].[moe]([m5C])}$$$$ (last 3' nucleoside missing) | 2
RNA1{[moe]([m5C])[sp].[moe]([m5C])p.[moe](T)p.[moe](G)p.[moe](T)p.d(G)[sp].d(A)[sp].d([m5C])[sp].d(T)[sp].d(A)[sp].d(T)[sp].d([m5C])[sp].d(T)[sp].d(A)[sp].d(G)[sp].[moe](G)p.[moe](A)p.[moe](T)[sp].[moe](T)}$$$$ (last 3' nucleoside missing) | 2
RNA1{[moe](A)[sp].[moe](A)p.[moe](G)p.[moe](G)p.[moe]([m5C])p.[moe](A)p.d([m5C])[sp].d(A)[sp].d(G)[sp].d(T)[sp].d(T)[sp].d([m5C])[sp].d([m5C])[sp].d([m5C])[sp].d(A)[sp].d(G)[sp].[moe](A)p.[moe](T)[sp].[moe](A)}$$$$ (last 3' nucleoside missing) | 2
RNA1{[moe](G)[sp].[moe]([m5C])p.[moe](T)p.[moe](T)p.[moe](T)p.[moe](T)p.d(G)[sp].d([m5C])[sp].d([m5C])[sp].d([m5C])[sp].d([m5C])[sp].d([m5C])[sp].d(T)[sp].d(G)[sp].d(T)[sp].d(A)[sp].[moe](G)p.[moe](T)[sp].[moe](G)}$$$$ (last 3' nucleoside missing) | 3
RNA1{[moe](A)[sp].[moe](G)p.[moe](T)p.[moe](G)p.d(T)[sp].d(G)[sp].d(T)[sp].d(A)[sp].d(T)[sp].d(T)[sp].d(A)[sp].d(G)[sp].d(G)[sp].d(A)[sp].[moe](T)p.[moe]([m5C])p.[moe]([m5C])p.[moe]([m5C])[sp].[moe](A)}$$$$ (last 3' nucleoside missing) | 5
RNA1{[moe](T)[sp].[moe](T)p.[moe](G)p.[moe](G)p.[moe](T)p.[moe](G)p.d([m5C])[sp].d(T)[sp].d(T)[sp].d(T)[sp].d(T)[sp].d(G)[sp].d([m5C])[sp].d([m5C])[sp].d([m5C])[sp].d([m5C])[sp].[moe]([m5C])p.[moe](T)[sp].[moe](G)}$$$$ (last 3' nucleoside missing) | 1
RNA1{[moe](G)[sp].[moe](G)p.[moe](T)p.[moe](A)p.[moe](T)[sp].d(G)[sp].d(A)[sp].d(T)[sp].d(A)[sp].d(G)[sp].d(G)[sp].d([m5C])[sp].d(T)[sp].d([m5C])[sp].d(T)[sp].[moe](G)p.[moe](G)p.[moe]([m5C])[sp].[moe](T)}$$$$ (last 3' nucleoside missing) | 5
RNA1{[moe]([m5C])[sp].[moe]([m5C])p.[moe](A)p.[moe](G)p.[moe](T)[sp].d(G)[sp].d([m5C])[sp].d([m5C])[sp].d([m5C])[sp].d(T)[sp].d(T)[sp].d([m5C])[sp].d([m5C])[sp].d([m5C])[sp].d(A)[sp].[moe]([m5C])p.[moe](G)p.[moe](A)[sp].[moe](G)}$$$$ (last 3' nucleoside missing) | 2
RNA1{[moe](G)[sp].[moe]([m5C])p.[moe]([m5C])p.[moe](A)p.[moe](T)[sp].d(T)[sp].d(T)[sp].d(A)[sp].d(T)[sp].d([m5C])[sp].d(T)[sp].d(G)[sp].d(T)[sp].d(G)[sp].d([m5C])[sp].[moe](T)p.[moe](T)p.[moe](T)[sp].[moe](A)}$$$$ (last 3' nucleoside missing) | 6
RNA1{[moe](G)[sp].[moe]([m5C])p.[moe](A)p.[moe](A)p.[moe]([m5C])[sp].d(A)[sp].d(G)[sp].d(T)[sp].d(T)[sp].d(T)[sp].d([m5C])[sp].d([m5C])[sp].d(A)[sp].d(T)[sp].d(A)[sp].[moe](A)p.[moe]([m5C])p.[moe](A)[sp].[moe](A)}$$$$ (last 3' nucleoside missing) | 0
RNA1{[moe](G)[sp].[moe](A)p.[moe](A)p.[moe](T)p.[moe](G)[sp].d(G)[sp].d(T)[sp].d(G)[sp].d(A)[sp].d(T)[sp].d([m5C])[sp].d([m5C])[sp].d(G)[sp].d(G)[sp].d(T)[sp].[moe](T)p.[moe]([m5C])p.[moe](T)[sp].[moe]([m5C])}$$$$ (last 3' nucleoside missing) | 5
RNA1{[moe](G)[sp].[moe](T)p.[moe]([m5C])p.[moe](T)p.[moe](G)[sp].d(A)[sp].d(G)[sp].d(T)[sp].d([m5C])[sp].d(T)[sp].d([m5C])[sp].d(A)[sp].d(G)[sp].d(T)[sp].d(T)[sp].[moe](T)p.[moe](T)p.[moe]([m5C])[sp].[moe]([m5C])}$$$$ (last 3' nucleoside missing) | 7
RNA1{[moe](G)[sp].[moe](A)p.[moe](T)p.[moe](T)p.[moe](T)[sp].d(T)[sp].d([m5C])[sp].d([m5C])[sp].d([m5C])[sp].d([m5C])[sp].d(G)[sp].d(T)[sp].d([m5C])[sp].d(T)[sp].d(T)[sp].[moe](T)p.[moe](G)p.[moe](G)[sp].[moe](T)}$$$$ (last 3' nucleoside missing) | 6
RNA1{[moe](G)[sp].[moe](A)p.[moe](G)p.[moe](G)p.[moe]([m5C])[sp].d(T)[sp].d(T)[sp].d(T)[sp].d(T)[sp].d(G)[sp].d(A)[sp].d(G)[sp].d(A)[sp].d(T)[sp].d(A)[sp].[moe](T)p.[moe]([m5C])p.[moe](T)[sp].[moe](T)}$$$$ (last 3' nucleoside missing) | 4
RNA1{[moe](T)[sp].[moe](G)p.[moe](G)p.[moe](T)p.[moe]([m5C])p.d([m5C])[sp].d(T)[sp].d(A)[sp].d(A)[sp].d(A)[sp].d(T)[sp].d(A)[sp].d(T)[sp].d(T)[sp].d([m5C])[sp].[moe](T)p.[moe](A)p.[moe](G)[sp].[moe](T)}$$$$ (last 3' nucleoside missing) | 1
